Results on 24 molecules are retold here after patent US20230406853A1, “COVALENT CDK2-BINDING COMPOUNDS FOR THERAPEUTIC PURPOSES” (Umbra Therapeutics, Inc., priority 2021, published 2023).

Where only a bound is given, the exact number is not on record here.

In this assay the target is CycE1-CDK2 (Homo sapiens, UniProt P24941). Nature of the assay: Cdk2 Enzymatic TR-FRET Assay. Conditions: CDK2/CycE 5 nM, ATP 100 μM, 60 minutes pre-incubation with compound; read-out: CDK2 Kinase. It is filed as biochemical. The source says:
A TR-FRET system was used to detect CycE1-CDK2 kinase activity. The assay used a Europium-labeled anti-phospho-Ser/Thr antibody and ULight™-labeled peptide substrate (eIF4E-binding protein 1). When CycE1-CDK2 phosphorylates the peptide the phosphorylated Thr is recognized by the Europium-labeled anti-phospho-Ser/Thr antibody. Upon excitation of the Europium donor fluorophore at 337 nm, energy is transferred to the ULight™ acceptor dye on the substrate, resulting in the emission of light at 665 nm. The fluorescent signal is proportional to the level of ULight™ peptide phosphorylation and to the kinase activity.
The stock solution was prepared as follows: • 1× Reaction buffer: 50 mM HEPES pH 7.5, 10 mM MgCl2, 0.5 mM TCEP, 0.01% Tween®20, 1 mM EGTA, 0.001% fatty acid free (faf)-BSA; • 1× Detection buffer: equilibrate the Detection buffer at RT for at least 20 minutes then dilute 10-fold the stock in water; • 4×ENZYME mix: CDK2/CycE enzyme (5 nM final concentration in kinase reaction) in 1× Reaction buffer; • 4×SUBSTRATE mix: 4E-BP substrate (50 nM final concentration in kinase reaction)+ATP (100 μM final concentration in kinase reaction) in 1× Reaction buffer • 2×STOP/DETECTION mix: EDTA (10 mM final concentration in assay)+Anti-Phosphate antibody (0.5 nM final concentration in assay) in 1× Detection buffer • Neutral Control: Assay with no inhibition (MAX activity) • Inhibitor Control: Assay with IC100 (1 mM) reference inhibitor JNJ7706621 (MIN activity)
The assay was assembled directly in a white, small volume, Proxiplate (PerkinElmer) as follows: • Step 1: Charge compounds=5 μL/well • Step 2: Charge kinase=2.5 μL/well→total volume 7.5 μL/well • The plate is sealed and incubated at room temperature for 60 minutes • Step 3: Substrate mix (substrate/ATP)=2.5 μL/well→total enzymatic reaction volume 10 μL/well • The plate is sealed and incubated at room temperature for 60 minutes • Step 4: Stop/Detection mix (EDTA/antibody)=10 μL/well→total volume 20 μL/well • The plate is sealed and incubated at room temperature for at least 2 hours and fluorescence signal is measured at PHERAstar FSX The reading conditions are the followings for PHERAstar FSX:
A 384-microtiter plate (MTP), containing 20 test compounds in eight-points dose response, is prepared. Test compounds dose response curves are prepared in automation in 100% DMSO in a CyBio Felix, starting from a DMSO stock solution of 10 mM. To obtain the eight-points dose-response curve, a serial dilution protocol in 100% DMSO is performed for each compound by using a 96 MTP as a support. 20 μL of the 10 mM stock solutions are transferred in row A of a 96 MTP U-bottom from column 2 to 11 for a total of 10 compounds/plate. Starting from the 10 mM stock, serial dilutions across rows, from A to B and proceeding up to H, are performed for each compound by transferring 6.3 μL of the more concentrated fluid in 13.7 μL of 100% DMSO.
In order to generate duplicate data points each well of the 96 MTP is then replicated into two wells of a 384 MTP plate for each compound and for each concentration to be tested. The 384 MTP compound plate is used as source plate in a “mother to child” process with a CyBi®-Well dispenser in which 1 μL of compound is moved into a destination plate pre-filled with 24 μL of reaction buffer, obtaining 2× concentrated compound solution.
Genedata Screener® 17.0 was used for data analysis. In the implemented workflow, the following calculations were conducted: • Calculate the Response Value (KRV) from the respective original data as follow:
HTRF Assay: Ratio=665 nm_FRET/620 nm_Ab*10000 • Calculate the % Inhibition of the compound (Inhibitory effect). KRV was normalized versus Neutral Controls and Inhibitor Controls (JNJ7706621) to obtain Activity % according to the following formula:
Activity %=−100*(x−<Neutral Control>)/(<Inhibitor Control>−<Neutral Control>) […]
A general note: In TR-FRET formats the signal depends on donor and acceptor labels being close together.
`CS(=O)(=O)N1CCC(Nc2ncc3cc(Cl)c(=O)n(CCCS(=O)(=O)n4cnc(-c5ccccc5)n4)c3n2)CC1` [Compound 287]: the IC50 was less than 10 µM.

With `CC(C)(C)c1ncn(S(=O)(=O)c2ccc(NC(=O)Cn3c(=O)ccc4cnc(NC5CCN(S(C)(=O)=O)CC5)nc43)cc2)n1` [Compound 262], the IC50 was more than 200 µM.

With `CS(=O)(=O)N1CCC(Nc2ncc3cc(Cl)c(=O)n(CCCS(=O)(=O)n4cncn4)c3n2)CC1` [Compound 285], the IC50 is less than 10 µM.

For `CS(=O)(=O)N1CCC(Nc2ncc3ccc(=O)n(CC(=O)Nc4ccc(S(=O)(=O)n5cnc(C6CC6)n5)cc4)c3n2)CC1` [Compound 232], the IC50 is less than 10 µM.

Turning to `CS(=O)(=O)N1CCC(Nc2ncc3ccc(=O)n(Cc4ccc(S(=O)(=O)n5cnc(C6CC6)n5)cc4)c3n2)CC1` [Compound 243], the IC50 is less than 10 µM.

For the molecule `CS(=O)(=O)N1CCC(Nc2ncc3ccc(=O)n(CC(=O)NCc4ccc(S(=O)(=O)n5cnc(C6CC6)n5)cc4)c3n2)CC1` [Compound 235], the IC50 is less than 10 µM.

Regarding `CN1CCC(Nc2ncc3ccc(=O)n(CC(=O)Nc4ccc(S(=O)(=O)n5cnc(C6CC6)n5)cc4)c3n2)CC1` [Compound 280], the IC50 is more than 200 µM.

For `Cc1cc(NC(=O)Cn2c(=O)ccc3cnc(NC4CCN(S(C)(=O)=O)CC4)nc32)ccc1S(=O)(=O)n1cnc(C2CC2)n1` [Compound 239], the IC50 is less than 10 µM.

On to `CS(=O)(=O)N1CCC(Nc2ncc3ccc(=O)n(CCS(=O)(=O)n4cnc(-c5ccccc5)n4)c3n2)CC1` [Compound 274], for which the IC50 was less than 10 µM.

Regarding `CS(=O)(=O)N1CCC(Nc2ncc3ccc(=O)n(CCCS(=O)(=O)n4cncn4)c3n2)CC1` [Compound 244], the IC50 was less than 10 µM.

As for `CC(C(=O)Nc1ccc(S(=O)(=O)n2cnc(C3CC3)n2)cc1)n1c(=O)ccc2cnc(NC3CCN(S(C)(=O)=O)CC3)nc21` (stereo not drawn) [Compound 254], the IC50 was less than 10 µM.

Consider `Cc1cc(NC(=O)Cn2c(=O)ccc3cnc(NC4CCN(S(C)(=O)=O)CC4)nc32)ccc1S(=O)(=O)n1cnc(-c2ccccc2)n1` [Compound 238], for which the IC50 is less than 10 µM.

For the molecule `O=c1ccc2cnc(NC3CC3)nc2n1CCCS(=O)(=O)n1cnc(C2CC2)n1` [Compound 271], the IC50 was less than 10 µM.

In the case of `CS(=O)(=O)N1CCC(Nc2ncc3ccc(=O)n(CC(=O)NCc4ccc(S(=O)(=O)n5cnc(-c6ccccc6)n5)cc4)c3n2)CC1` [Compound 240], the IC50 was less than 10 µM.

As for `CNc1ncc2ccc(=O)n(CC(=O)Nc3ccc(S(=O)(=O)n4cnc(-c5ccccc5)n4)cc3)c2n1` [Compound 249], the IC50 was more than 200 µM.

For the molecule `O=c1ccc2cnc(NC3CCOC3)nc2n1CCCS(=O)(=O)n1cnc(C2CC2)n1` (stereo not drawn) [Compound 267], the IC50 was 10 to 100 µM.

`CS(=O)(=O)N1CCC(Nc2ncc3ccc(=O)n(CCS(=O)(=O)n4cnc(C5CC5)n4)c3n2)CC1` [Compound 264]: the IC50 is less than 10 µM.

Turning to `O=c1ccc2cnc(NC3CCOCC3)nc2n1CCCS(=O)(=O)n1cnc(C2CC2)n1` [Compound 257], the IC50 is less than 10 µM.

On to `CS(=O)(=O)N1CCC(Nc2ncc3cc(CCO)c(=O)n(CCCS(=O)(=O)n4cnc(-c5ccccc5)n4)c3n2)CC1` [Compound 284], for which the IC50 was less than 10 µM.

With `CCOCc1cc2cnc(NC3CCN(S(C)(=O)=O)CC3)nc2n(CCCS(=O)(=O)n2cnc(-c3ccccc3)n2)c1=O` [Compound 256], the IC50 is more than 200 µM.

On to `CS(=O)(=O)N1CCC(Nc2ncc3ccc(=O)n(CC(=O)Nc4ccc(S(=O)(=O)n5cnc(C6CCCC6)n5)cc4)c3n2)CC1` [Compound 273], for which the IC50 was more than 200 µM.

For `Cc1cc2cnc(NC3CCN(S(C)(=O)=O)CC3)nc2n(CCCS(=O)(=O)n2cnc(-c3ccccc3)n2)c1=O` [Compound 299], the IC50 was less than 10 µM.

As for `CS(=O)(=O)N1CCC(Nc2ncc3cc(C(F)F)c(=O)n(CCOC(=O)c4ccc(S(=O)(=O)n5cncn5)cc4)c3n2)CC1` [Compound 226], the IC50 was less than 10 µM.

Turning to `CS(=O)(=O)N1CCC(Nc2ncc3cc(CCO)c(=O)n(CCCS(=O)(=O)n4cncn4)c3n2)CC1` [Compound 297], the IC50 is less than 10 µM.
